Data from the supplement of paper PMC10307832.

Legend:
Assay in all cases: relative viability (nuclei count vs DMSO), 5 days (fraction); higher = more cells survive
[1] = compound: CC1=CC(=NN1)NC2=CC(=NC(=N2)/C=C/C3=CC=CC=C3)N4CCN(CC4)C + CC(C)C[C@H](NC(=O)[C@H](Cc1ccccc1)NC(=O)c1cnccn1)B(O)O [Bortezomib] (partner 0.002 µM)
Outline: (§1)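 A single step with final 0.05% Triton X-100, 1% formaldehyde and 1 ug/ml Hoechst fixed the cells and stained nuclei 5 days after treatment. Lung cancer cell lines in 1536-well plates had been treated by pin tool the day after seeding with one drug alone or a fixed anchor-drug dose plus five library-drug doses (not always all listed) in √10 steps, and nuclei were counted on 4× images. Relative viability is the ratio of nuclei in treated wells to nuclei in vehicle wells, taken as the median of duplicate plates.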

[2] = compound: CC1=CC(=NN1)NC2=CC(=NC(=N2)/C=C/C3=CC=CC=C3)N4CCN(CC4)C + COc1cccc2cc(-c3nc([C@H]4CC[C@H](C(=O)O)CC4)n4ncnc(N)c34)[nH]c12 [OSI-027] (partner 0.5 µM)
Outline: as §1

Bortezomib + Pemetrexed = compound: CC(C)C[C@H](NC(=O)[C@H](Cc1ccccc1)NC(=O)c1cnccn1)B(O)O [Bortezomib] + Nc1nc2[nH]cc(CCc3ccc(C(=O)N[C@@H](CCC(=O)O)C(=O)O)cc3)c2c(=O)[nH]1 [Pemetrexed] (partner 0.2 µM)
Outline: as §1

Bortezomib + Foretinib = compound: CC(C)C[C@H](NC(=O)[C@H](Cc1ccccc1)NC(=O)c1cnccn1)B(O)O [Bortezomib] + COc1cc2c(Oc3ccc(NC(=O)C4(C(=O)Nc5ccc(F)cc5)CC4)cc3F)ccnc2cc1OCCCN1CCOCC1 [Foretinib] (partner 0.25 µM)
Outline: as §1

Cell Line	relative viability ([1]; first compound 0.08 µM)	relative viability ([1]; first compound 0.253 µM)	relative viability ([1]; first compound 0.8 µM)	relative viability ([1]; first compound 2.53 µM)	relative viability ([1]; first compound 8 µM)	relative viability ([2]; first compound 0.08 µM)	relative viability ([2]; first compound 0.253 µM)	relative viability ([2]; first compound 0.8 µM)	relative viability ([2]; first compound 2.53 µM)	relative viability ([2]; first compound 8 µM)	relative viability (Bortezomib + Pemetrexed; first compound 0.0002 µM)	relative viability (Bortezomib + Pemetrexed; first compound 0.000632 µM)	relative viability (Bortezomib + Pemetrexed; first compound 0.002 µM)	relative viability (Bortezomib + Pemetrexed; first compound 0.006325 µM)	relative viability (Bortezomib + Pemetrexed; first compound 0.02 µM)	relative viability (Bortezomib + Foretinib; first compound 0.0002 µM)	relative viability (Bortezomib + Foretinib; first compound 0.000632 µM)	relative viability (Bortezomib + Foretinib; first compound 0.002 µM)	relative viability (Bortezomib + Foretinib; first compound 0.006325 µM)	relative viability (Bortezomib + Foretinib; first compound 0.02 µM)
LC-2-ad	0.938	1.03	0.602	0.289	0.0902	0.808	0.867	0.753	0.336	0.184	0.255	0.271	0.255	0.252	0.185	0.913	0.899	0.814	0.244	0.203
HARA	0.971	1.31	1.09	0.352	0.109	0.361	0.474	0.649	0.252	0.0476	0.221	0.178	0.228	0.157	0.13	0.851	0.866	0.928	0.0716	0.0683
NCI-H1975	0.403	0.408	0.31	0.159	0.109	0.676	0.746	0.629	0.15	0.0749	0.274	0.253	0.158	0.136	0.122	0.927	0.926	0.132	0.104	0.107
NCI-H2085	1.06	1.05	1.07	0.651	0.333	0.728	0.755	0.758	0.334	0.193	0.827	0.873	0.991	0.403	0.206	1.04	1.08	1.05	0.273	0.199
NCI-H3122	0.92	0.924	1.07	1.02	0.542	0.901	0.763	0.975	0.675	0.186	0.2	0.202	0.195	0.171	0.117	0.889	0.882	0.994	0.693	0.0999
NCI-H1651	0.946	0.892	0.865	0.876	0.448	0.613	0.749	0.63	0.293	0.133	0.603	0.618	0.565	0.594	0.362	0.788	0.772	0.423	0.101	0.112
NCI-H441	0.543	0.547	0.332	0.265	0.192	0.607	0.501	0.589	0.226	0.179	0.248	0.244	0.253	0.104	0.118	0.801	0.987	0.563	0.188	0.168
NCI-H2126	1.07	1.14	1.19	1.09	1.02	0.74	0.747	0.675	0.596	0.37	0.648	0.695	0.707	0.61	0.536	1.08	1.03	1.12	1.02	0.21
RERF-LC-KJ	1.09	1.16	1.12	0.748	0.381	0.532	0.656	0.53	0.238	0.179	0.673	0.459	0.464	0.347	0.358	0.944	0.886	0.929	0.761	0.221
NCI-H1563	0.943	0.874	0.863	0.714	0.428	0.776	0.813	0.722	0.65	0.431	0.885	0.848	0.744	0.809	0.575	0.874	0.966	0.803	0.526	0.475
NCI-H1666	0.892	0.925	0.872	0.55	0.215	0.822	0.921	0.86	0.79	0.432	0.816	0.872	0.858	0.579	0.443	0.868	0.945	0.884	0.289	0.316
PC-14	0.748	0.947	0.839	0.488	0.0557	0.856	0.825	0.802	0.0598	0.0365	0.126	0.142	0.166	0.0636	0.078	1.04	1.03	1.02	0.588	0.159
NCI-H1915	1.01	1.04	1.01	0.555	0.54	0.635	0.496	0.557	0.371	0.271	0.496	0.475	0.494	0.396	0.0489	1.05	1.12	1.1	0.112	0.0806
NCI-H661	0.741	0.906	0.839	0.669	0.203	0.774	–	0.599	0.39	0.217	0.887	0.89	0.88	0.594	0.23	1.04	1.03	1.01	0.559	0.219
HCC-78	0.456	0.636	0.582	0.559	0.214	0.325	0.357	0.387	0.343	0.198	0.786	0.89	0.932	0.887	0.902	0.505	0.577	0.492	0.432	0.254
PC-3 [JPC-3]	0.836	0.968	0.838	0.853	0.761	0.766	0.683	0.83	0.67	0.59	1.02	1.14	0.727	0.196	0.184	1.04	1.05	0.346	0.163	0.121
